System: COMT II (−1215 to +24)/GUS
Test: Induction of GUS activity in COMT II (−1215 to +24)/GUS transgenic plants by elicitors and chemical products
Format: in vivo, Nicotiana tabacum cv. Samsun NN
Details: for GUS Activity: leaves 16 h after infiltration, SA 1 mM, INA 1 mM, chitins 100 μg/ml, glucans 200 μg/ml, pectins 200 μg/ml; for Induction %: nontreated control C = 100, 16 h after infiltration, concentrations as for GUS Activity column
Description: The transgenic plants containing the construct COMT II (−1215 to +24)/GUS were treated with various chemical products, regulators of defense reactions, with methyl-2,6-dichloroisonicotinic (INA) and salicylic acid (SA), with fungal elicitors such as glucans or fragments of chitin and an elicitor of plant origin, such as pectin. The GUS activity is expressed in pmol MU/min.mg. The control (C) corresponds to the basal GUS activity in the nontreated transformed plants.
The induction of the 1239 bp promoter was studied during injury or after treatment with methyl jasmonate (molecule which plays a role in defense response signaling during injury) or with benzothiadiazole (BTH) (chemical SAR-inducer). The GUS activity is measured 16 h after treatment.
The COMT II and GUS activities were assayed on 100 mg of tissues. The tissue is homogenized in a 100 mM sodium phosphate buffer at pH 7.5 containing 10 mM of DTT, after addition of polyclar AT (Serva) and of quartz. The crude extracts are clarified by centrifugation and by filtration on glass wool. The GUS and COMT II activities are measured on the same crude extracts. For measuring the COMT II activity, an aliquot of the protein extract is added to 1 ml of phosphate buffer comprising 100 μM of catechol and 50 μM of tritiated S-adenosyl-L-methionine (1.5×10^5 cpm/ml) and incubated for 3 hours at 37° C. The reaction is stopped by adding 100 μl of 9M sulfuric acid. The radioactive reaction product, […], is extracted with 5 ml of an NA scintillation solution (Beckman) and the radioactivity is counted on a Beckman LS 9000 machine. The fluorimetric measurement of the GUS activity is performed on the same samples, according to the procedure of Jefferson et al. (1987). The protein content is determined by the Bradford method (1976) using Biorad reagents.
Treatment with an elicitor: Solutions are infiltrated, using a syringe equipped with a fine needle, in the mesophyl of the leaves. The infiltrated regions are delimited with a felt-tip marker. The infiltrated regions are harvested 16 hours after treatment. The leaves are treated with a solution of β-megaspermine, a protein elicitor purified from a Phytophthora megasperma culture medium (Kauffmann et al., 1993), or of oligosaccharides such as chitin oligomers (100 μg/ml), glucan fragments (200 μg/ml) and pectin fragments (200 μg/ml). The control plants are infiltrated with water.
Chemical treatments: (1) Solutions of SA (1 mM) or of INA (50 mM) are infiltrated into tobacco leaves using.the protocol described for the treatment with elicitors. (2) Under identical culture conditions, solutions of SA (10 mM), INA (1 mM) or BTH (50 mM) are sprayed onto the transgenic plants. The tissues are recovered 16 hours after treatment. Plants treated with water are used as a control. (3) Seven-week-old plants or leaves of vitroplants kept alive on water are transferred into transparent, hermetically sealed dishes and subjected to an atmosphere of 3.5 mM of MeJa (Serva). The tissues are removed at various times after treatment. The control plants are placed in the same dishes without MeJa.

[1] = 1239 bp promoter, 16 h after treatment

Structure (SMILES)	induction factors [1]	Induction of the GUS activity % (1239 bp promoter, 16 h after treatment, nontreated plants C = 100) [%]	GUS Activity	Induction % [%]
c1ccc2snnc2c1 [BTH, benzothiadiazole]	2.5	250		
COC(=O)c1cc(Cl)nc(Cl)c1 [INA, methyl-2,6-dichloroisonicotinic]			1,700 pmol MU/min.mg	200
CC/C=C\CC1C(=O)CCC1CC(=O)OC (stereo not shown) [Methyl jasmonate, methyl jasmonate]	14.5			
O=C(O)c1ccccc1O [SA, salicylic acid]			1,200 pmol MU/min.mg	200

Source: patent publication US20040029167A1, “Inducible COMT_II promoter, chimeric gene containing same and plants transformed therewith” (priority 1999, published 2004)
